These results are taken from patent US20230416785A1, “NUCLEASE AND APPLICATION THEREOF” (CRISP-HR Therapeutics, Inc., priority 2020, published 2023).

Series [1] has as its system A549 cells. The experiment in a line: Pifithrin-α treatment of A549 cells transfected with Cas9 or Cas9-HR, resazurin viability. Format: cell-based, human. Here is the method:
(§1) 20 μL of 0.15 mg/mL Resazurin solution was added to cells either plated in 96 well plates for all cell lines, which were then incubated for ˜4 hours at 37° C. Cellular toxicity was quantified using a Tecan SpectraFlour Plus plate reader (Tecan) using a 535/595 filter set. Raw data was then normalized to the mean of the untransfected controls and plotted as described.
(The colour change of resazurin is a common sign of viable cells or microbes.)

Another series deals with endogenous H2B. The experiment in a line: H2B-mNeon knock-in HDR quantification in K562 cells. As to conditions: H2B-mNeon RT, genome specific plus RT specific primers. Format: cell-based, human.
Series [2] concerns A549 cells. The experiment in a line: Cellular toxicity / viability of transfected A549 cells (resazurin assay). Format: cell-based. Here is the method:
A549 cells were chosen as they are both facile to grow and transfect, cost effective in terms of media and other reagents, and importantly have retained a functional p53 gene.
Cells were then allowed to recover for one additional day, after which viability was cells were incubated with resazurin (Millipore Sigma) for 4 hours, after which fluorescence was quantified by a plate reader (Perkin Elmer).
Unless otherwise noted, adherent cells (A549 or H1299) were seeded in 96 well plates and grown in either 50/50 F-12/DMEM or RPMI-1640 respectively, supplemented with 5% FBS and grown to roughly 70% confluency. Cells were then transfected with either Cal-Phos as described in Chen 2012 or Lipofectamine 3000 (Thermofisher). Fresh media was exchanged the next day and cellular viability was quantified on day 2.
as §1
20 μL of 0.15 mg/mL Resazurin solution was added to cells either plated in 96 well plates for all cell lines, which were then incubated for ˜4 hours at 37° C. Cellular toxicity was quantified using a Tecan SpectraFlour Plus plate reader (Tecan) using a 535/595 filter set. Raw data was then normalized to the mean of the untransfected controls and plotted as described. […] Stats: All two-sided students T-test with unequal variance.

For the next series, the system named is HBB amplicon. Kind of series: In-vitro exonuclease assay with purified proteins. As to conditions: 30 nM protein, 3 nM HBB amplicon, 37° C., 60 minutes. Format: biochemical, human. As for the experimental part: Reactions were then electrophoresed and visualized on an agarose gel. FIG. 5C illustrates quantification of exonuclease activity. Quantification of exonuclease activity assayed in FIG. 5B. 3 replicates were performed for each reaction and were quantified via FIJI (ImageJ) and then normalized to control amplicon levels.
Reactions were then electrophoresed and visualized on an agarose gel.
DNA was isolated from wildtype K562 cells, and amplified using standard Taq DNA polymerase and HBB-out-F (5′-[…]-3′ (SEQ ID NO: 125)) and HBB-out-R (5′-[…]-3′ (SEQ ID NO: 126)), Tm=56 for 35 cycles, and purified using the Qiagen PCR cleanup kit. […] The samples were then electrophoresed on a standard 1% TAE agarose gel stained with gel green.

Entries after “also recorded” stand apart in the source; their conditions may differ.

Protocol for endogenous H2B: After two days, cells were fixed in 4% PFA washed in PBS, then directly imaged, with cells showing nuclear localized fluorescence counted as successful HDR events.
K562 were grown in 24 well plates with RPMI-1640 supplemented with 5% FBS until roughly 70% confluent. At that time cells were either electroporated using the mNeon system (Invitrogen) using optimized settings for K562 cells, or lipofectamine 3000 again following manufactures instructions. Cells were then returned to 24 well plates with fresh media and grown for at least two days before being used in downstream analysis.
After 2 days, cells attached to coverslips coated with 0.01% poly-1-lysine, and were fixed in 4% PFA (Thermofisher) for 15 minutes at RT. After fixation, cells were washed 3× in PBS, mounted in 50% glycerol and imaged on a Nikon Eclipse E600 with standard FITC filters. For quantification, random patches of cells (usually between 8-15 cells per image) were identified via Brightfield, then fluoresce images were taken with constant illumination and exposure time (100%, and 110 ms respectively).

Turning to `Cc1ccc(C(=O)Cn2c3c(sc2=N)CCCC3)cc1` [Pifithrin-α], in the series with A549 cells [1] (10 nM-10 μM Pifithrin-α, A549 cells transfected with Cas9), the “cellular viability over a dilution series” value is listed as “dose dependent response in cellular viability; also recorded: decreasing levels of toxicity with increasing concentrations; also recorded: Dose dependent increases in cellular viability”. For the same molecule, in the series with A549 cells [1] (10 μM Pifithrin-α, A549 cells transfected with Cas9), the “effect on viability / Cas9 mediated toxicity compared to DMSO” value is recorded as “reduces Cas9 mediated cellular toxicity; also recorded: statistically significant (p<0.001) increase in viability; also recorded: increase in cellular viability”. For the same molecule, the “effect on viability / toxicity compared to DMSO” value in the series on A549 cells [1] (10 μM Pifithrin-α, A549 cells transfected with Cas9-HR 8) was “does not affect cellular toxicity; also recorded: no significant change in cellular viability; also recorded: no effect”. Moreover, in the series on A549 cells [1] (10 μM Pifithrin-α, A549 cells transfected with Cas9, two days), the “increase in cellular viability compared to DMSO” value was approximately 2 fold.
On to “Cas9-HR 4: hExo1(1-352)-Cas9 fusion of FIG. 1A; E. coli codon optimized vector SEQ ID NO: 67”, for which the “PCR of 5′ and 3′ knock-in junctions” value in the series on endogenous H2B is recorded as “Successful amplification”. In addition, the cellular toxicity entry in the series on A549 cells [2] (Int-G2 and Int-G3, CalPhos) is “dramatic reduction in cellular toxicity”. Further, in the series on A549 cells [2] (Int-G2 vs Int-G3), the “toxicity targeting G-2 rather than G-3” value is “significantly more toxicity”. For the same molecule, the “reduction in cellular toxicity compared to Cas9 or Cas9+hExo1” value in the series on A549 cells [2] (targeting HBB-G3) is on record as “greatest reduction”. Also, in the series with HBB amplicon, the “exonuclease activity (reduction of full length HBB amplicon)” value is listed as “did not show Exonuclease activity; also recorded: no significant activity”.
